Laboratory results published in patent US20100022483A1, “Substituted Tetracycline Compounds” (Paratek Pharmaceuticals, Inc., priority 2008, published 2010).
Values after ≈ are worked out from the molar mass of the structure shown. Like-named read-outs stand apart in the source and are kept apart here.

Tests used:
gram positive bacteria = assay: In vitro anti-bacterial activity assay (broth dilution MIC), gram positive bacteria; format: cell-based, S. aureus; conditions: 18 h
Source text: (§1) Bacterial infections may be caused by a wide variety of gram positive and gram negative bacteria. Some of the compounds of the invention are useful as antibiotics against organisms which are resistant and/or sensitive to other tetracycline compounds. The antibiotic activity of the tetracycline compounds of the invention may by using the in vitro standard broth dilution method described in Waitz, J. A., CLSI, Document M7-A2, vol. 10, no. 8, pp. 13-20, 2nd edition, Villanova, Pa. (1990).
(§2) The following assay was used to determine the efficacy of the tetracycline compounds against gram positive and gram negative bacteria. 2 mg of each compound was dissolved in 100 μl of DMSO. […] The tetracycline compound solutions were diluted to 50 μL volumes, with a test compound concentration of 0.098 μg/ml. Optical density (OD) determinations were made from fresh log-phase broth cultures of the test strains. Dilutions were made to achieve a final cell density of […] CFU/ml. At OD=1, cell densities for different genera were approximately:
(§3) 50 μl of the cell suspensions were added to each well of microtiter plates. The final cell density was approximately 5×10^5 CFU/ml. These plates were incubated at 35° C. in an ambient air incubator for approximately 18 hours. The plates were read with a microplate reader and were visually inspected when necessary. The MIC was defined as the lowest concentration of the tetracycline compound that inhibits growth. Table 3 includes MIC data for several substituted tetracycline compounds.

gram negative bacteria = assay: In vitro anti-bacterial activity assay (broth dilution MIC), gram negative bacteria; format: cell-based, E. coli
Source text: as §1, §2, §3

[1] = Mammalian cytotoxicity assay (resazurin), COS-1 cells; format: cell-based; conditions: African green monkey, read-out: Cytotox. COS-1
Experimental: (§4) COS-1 and CHO-K1 cell suspensions were prepared, seeded into 96-well tissue culture treated black-walled microtiter plates (density determined by cell line), and incubated overnight at 37° C., in 5% CO2 and approximately 95% humidity. The following day, serial dilutions of compound were prepared under sterile conditions and transferred to cell plates. Cell/Compound plates were incubated under the above conditions for 24 hours. Following the incubation period, media/compound was aspirated and 50 μl of resazurin (0.042 mg/ml in PBS w/Ca and Mg) is added. The plates were then incubated under the above conditions for 2 hours and then placed in the dark at room temperature for an additional 30 minutes. Fluorescence measurements were taken (excitation 535 nm, emission 590 nm). The IC50 (concentration of compound causing 50% growth inhibition) was then calculated. Table 3 includes IC50 data for several substituted tetracycline compounds.

in vitro = format: cell-based; conditions: Chinese hamster, Cytotox. CHO-K1
Experimental: as §4

3T3 fibroblast cells = assay: In vitro phototoxicity assay (neutral red; UV light-treated vs dark control plates); format: cell-based; conditions: for Photo Toxicity UV Tox50: UV light 50 minutes; for Photo Toxicity Dark Tox50: dark control plate
Experimental: 3T3 fibroblast cells were harvested and plated at a concentration of 1×10^5 cells/mL and the plates were incubated overnight at 37° C., in 5% CO2 and approximately 95% humidity. On the following day the medium was removed from the plates and replaced with Hanks' Balanced Salt Solution (HBSS). Compound dilutions were made in HBSS and added to the plates. For each compound tested, a duplicate plate was prepared that was not exposed to light as a control for compound toxicity. Plates were then incubated in a dark drawer (for controls), or under UV light (meter reading of 1.6-1.8 mW/cm^2) for 50 minutes. Cells were then washed with HBSS, fresh medium was added, and plates were incubated overnight as described above. The following day neutral red was added as an indicator of cell viability. The plates were then incubated for an additional 3 hours. Cells were then washed with HBSS and blotted on absorbent paper to remove excess liquid. A solution of 50% EtOH, 10% glacial acetic acid was added and after 20 minutes incubation the plate's absorbance at 535 nm was read using a Wallac Victor 5 spectrophotometer. The phototoxicity reflected the difference between the light-treated and control cultures. Table 3 includes phototoxicity (μM) data for several substituted tetracycline compounds.

[2] = Staphylococcus aureus, S. aureus MRSA5, read-out: Median MIC's G+ S. aureus MRSA5
[3] = Staphylococcus aureus, S. aureus RN450, read-out: Median MIC's G+ S. aureus RN450
[4] = Streptococcus pneumoniae, S. pneumoniae 157E-Strep, read-out: Median MIC's G+ S. pneumoniae 157E-Strep
[5] = Escherichia coli, 18 h, E. coli D1 209, read-out: Median MIC's G− E. coli D1 209
[6] = Escherichia coli, 18 h, E. coli MG 1655, read-out: Median MIC's G− E. coli MG 1655
[7] = Escherichia coli, ATCC25922, 18 h, E. coli ATCC 25922, read-out: Median MIC's G− E. coli ATCC 25922
[8] = Pseudomonas aeruginosa, 18 h, P. aeruginosa K201 PAO6609, read-out: Median MIC's G− P. aeruginosa K201 PAO6609

Structure (SMILES) | MIC (gram positive bacteria; [2]) [µg/mL] | MIC (gram positive bacteria; [3]) [µg/mL] | MIC (gram positive bacteria; [4]) [µg/mL] | MIC (gram negative bacteria; [5]) [µg/mL] | MIC (gram negative bacteria; [6]) [µg/mL] | MIC (gram negative bacteria; [7]) [µg/mL] | MIC (gram negative bacteria; [8]) [µg/mL] | IC50 at 24 h [1] [µM] | IC50 at 24 h (in vitro) [µM] | Photo Toxicity UV Tox50 (3T3 fibroblast cells) [µM] | Photo Toxicity Dark Tox50 (3T3 fibroblast cells) [µM]
CC1CCN(CC(=O)c2ccc(O)c3c2C[C@H]2C[C@H]4[C@H](N(C)C)C(O)=C(C(N)=O)C(=O)[C@@]4(O)C(O)=C2C3=O)CC1 [BH, 7-[2-(4-methyl-piperidin-1-yl)acetyl]-Sancycline] | 0.06 (≈ 0.108 µM) | 0.06 (≈ 0.108 µM) | 0.06 (≈ 0.108 µM) | 0.25 (≈ 0.452 µM) | 0.06 (≈ 0.108 µM) | 0.06 (≈ 0.108 µM) | 32 (≈ 57.8 µM) | > 136 | > 136 | >135.66 | >135.66
CN(C)[C@@H]1C(O)=C(C(N)=O)C(=O)[C@@]2(O)C(O)=C3C(=O)c4c(O)ccc(-c5ccc(CNCc6cccnc6)o5)c4C[C@H]3C[C@@H]12 [BI] | 8 (≈ 13.3 µM) | 0.06 (≈ 0.0999 µM) | 0.06 (≈ 0.0999 µM) | 2 (≈ 3.33 µM) | 4 (≈ 6.66 µM) | 1 (≈ 1.66 µM) | 64 (≈ 107 µM) | > 39.3 | > 26 | >126.75 | >126.75
CN(Cc1cccnc1)Cc1cccc(-c2ccc(O)c3c2C[C@H]2C[C@H]4[C@H](N(C)C)C(O)=C(C(N)=O)C(=O)[C@@]4(O)C(O)=C2C3=O)c1 [BJ] | 2 (≈ 3.2 µM) | 0.25 (≈ 0.4 µM) | 0.06 (≈ 0.096 µM) | 32 (≈ 51.2 µM) | 64 (≈ 102 µM) | 16 (≈ 25.6 µM) | 64 (≈ 102 µM) | > 12.3 | > 25.1 | >122.6 | >122.6
CN(C)Cc1ccc(-c2ccc(O)c3c2C[C@H]2C[C@H]4[C@H](N(C)C)C(O)=C(C(N)=O)C(=O)[C@@]4(O)C(O)=C2C3=O)[nH]1 [BK] | 4 (≈ 7.45 µM) | 0.25 (≈ 0.466 µM) | 0.13 (≈ 0.242 µM) | 64 (≈ 119 µM) | 4 (≈ 7.45 µM) | 4 (≈ 7.45 µM) | 32 (≈ 59.6 µM) | > 148 | > 148 | >147.66 | >147.66
CN(CCC#N)Cc1cccc(-c2ccc(O)c3c2C[C@H]2C[C@H]4[C@H](N(C)C)C(O)=C(C(N)=O)C(=O)[C@@]4(O)C(O)=C2C3=O)c1 [BL] | 2 (≈ 3.41 µM) | 0.06 (≈ 0.102 µM) | 0.06 (≈ 0.102 µM) | 16 (≈ 27.3 µM) | 16 (≈ 27.3 µM) | 4 (≈ 6.82 µM) | 64 (≈ 109 µM) | > 13.6 | > 13.6 | >136.45 | >136.45
CN(CCOC(C)(C)C)Cc1cccc(-c2ccc(O)c3c2C[C@H]2C[C@H]4[C@H](N(C)C)C(O)=C(C(N)=O)C(=O)[C@@]4(O)C(O)=C2C3=O)c1 [BM] | 2 (≈ 3.16 µM) | 0.13 (≈ 0.205 µM) | 0.06 (≈ 0.0947 µM) | 4 (≈ 6.31 µM) | 8 (≈ 12.6 µM) | 4 (≈ 6.31 µM) | 64 (≈ 101 µM) | 22.8 | 21.6 | 5.93 | >104.43
CN(C)[C@H]1C(O)=C(C(N)=O)C(=O)[C@@]2(O)C(O)=C3C(=O)c4c(O)ccc(-c5cccc(CCCN6CCCCC6)c5)c4C[C@H]3C[C@@H]12 [BN] | 32 (≈ 52 µM) | 4 (≈ 6.5 µM) | 0.25 (≈ 0.406 µM) | 32 (≈ 52 µM) | 32 (≈ 52 µM) | 16 (≈ 26 µM) | 64 (≈ 104 µM) | > 63 | > 63 | 33.41 | >200
COCCN(C)CC(=O)c1ccc(O)c2c1C[C@H]1C[C@H]3[C@H](N(C)C)C(O)=C(C(N)=O)C(=O)[C@@]3(O)C(O)=C1C2=O [BO] | 4 (≈ 7.36 µM) | 0.5 (≈ 0.92 µM) | 0.25 (≈ 0.46 µM) | 64 (≈ 118 µM) | 2 (≈ 3.68 µM) | 2 (≈ 3.68 µM) | 64 (≈ 118 µM) | > 154 | > 154 | >154.09 | >154.09
CN(C)[C@@H]1C(O)=C(C(N)=O)C(=O)[C@@]2(O)C(O)=C3C(=O)c4c(O)ccc(C(=O)CNCC(C)(C)C)c4C[C@H]3C[C@@H]12 [BP] | 16 (≈ 29.5 µM) | 2 (≈ 3.69 µM) | 2 (≈ 3.69 µM) | 64 (≈ 118 µM) | 32 (≈ 59.1 µM) | 32 (≈ 59.1 µM) | 64 (≈ 118 µM) | > 42.9 | > 42.9 | >138.32 | >138.32
COCCNCc1ccoc1-c1ccc(O)c2c1C[C@H]1C[C@H]3[C@H](N(C)C)C(O)=C(C(N)=O)C(=O)[C@@]3(O)C(O)=C1C2=O [BQ] | 4 (≈ 7.05 µM) | 0.06 (≈ 0.106 µM) | 0.06 (≈ 0.106 µM) | 64 (≈ 113 µM) | 1 (≈ 1.76 µM) | 1 (≈ 1.76 µM) | 64 (≈ 113 µM) | > 141 | > 141 | >140.51 | >140.51
CCOC(=O)N1CCN(CC(=O)c2ccc(O)c3c2C[C@H]2C[C@H]4[C@H](N(C)C)C(O)=C(C(N)=O)C(=O)[C@@]4(O)C(O)=C2C3=O)CC1 [BR] | 0.5 (≈ 0.816 µM) | 0.06 (≈ 0.0979 µM) | 0.06 (≈ 0.0979 µM) | 64 (≈ 104 µM) | 8 (≈ 13.1 µM) | 8 (≈ 13.1 µM) | 64 (≈ 104 µM) | > 40.7 | > 40.7 | >131.28 | >131.28
CC(=O)N1CCN(CC(=O)c2ccc(O)c3c2C[C@H]2C[C@H]4[C@H](N(C)C)C(O)=C(C(N)=O)C(=O)[C@@]4(O)C(O)=C2C3=O)CC1 [BS] | 8 (≈ 13.7 µM) | 1 (≈ 1.72 µM) | 1 (≈ 1.72 µM) | 64 (≈ 110 µM) | 32 (≈ 54.9 µM) | 64 (≈ 110 µM) | 64 (≈ 110 µM) | > 145 | > 145 | >144.92 | >144.92
CN(C)[C@@H]1C(O)=C(C(N)=O)C(=O)[C@@]2(O)C(O)=C3C(=O)c4c(O)ccc(C(=O)CNCC(F)(F)F)c4C[C@H]3C[C@@H]12 [BT] | 2 (≈ 3.61 µM) | 0.06 (≈ 0.108 µM) | 0.06 (≈ 0.108 µM) | 64 (≈ 116 µM) | 8 (≈ 14.5 µM) | 2 (≈ 3.61 µM) | 64 (≈ 116 µM) | > 47 | > 47 | >151.65 | >151.65
CN(C)[C@@H]1C(O)=C(C(N)=O)C(=O)[C@@]2(O)C(O)=C3C(=O)c4c(O)ccc(C(=O)CN5CCN(C6CCCCC6)CC5)c4C[C@H]3C[C@@H]12 [BU] | 1 (≈ 1.61 µM) | 0.13 (≈ 0.209 µM) | 0.06 (≈ 0.0964 µM) | 2 (≈ 3.21 µM) | 0.5 (≈ 0.803 µM) | 1 (≈ 1.61 µM) | 64 (≈ 103 µM) | > 123 | > 123 | >122.93 | >122.93
